Laboratory results reported in patent US20260200896A1, “INHIBITORS OF SPNS2 AND USES THEREOF” (NEW YORK UNIVERSITY, priority 2022, published 2026).

Test system: Female C57BL/6 mice
Assay: Animal study: lymphocytes and red blood cells in blood enumerated by hematology analyzer 24 hours after oral gavage
Assay type: in vivo
Conditions: oral gavage 400 micromol/kg, 24 hours later, vs vehicle (PEG300)
Method: Female C57BL/6 mice 6-8 weeks old were treated by oral gavage with vehicle (PEG300) or compound 510 at 400 micromol/kg. 24 hours later, lymphocytes and red blood cells (RBC) in blood were enumerated by hematology analyzer (XT-2000i). The results are depicted in FIG. 1.

CC(C)C(=O)N(CCO)[C@H]1CCN(c2nc3cc(F)c(F)cc3nc2-c2cccc(OC(F)(F)F)c2)C1 [Compound 510, (S)—N-(1-(6,7-difluoro-3-(3-(trifluoromethoxy)-phenyl)quinoxalin-2-yl)pyrrolidin-3-yl)-N-(2-hydroxyethyl)isobutyramide]
number of lymphocytes in blood (FIG. 1A): substantially reduced
number of red blood cells (RBC) in blood (FIG. 1B): remained unchanged
